Data: publication PMC3042952 (Nature structural & molecular biology, 2009)
Each block holds one molecule with its values, some of them ahead of it.

Columns and labels:
T2-TrpRS = biological target: T1, T2-TrpRS (Homo sapiens, UniProt P23381); assay: isothermal titration calorimetry; format: binding
T1 sequence (P23381 94-471): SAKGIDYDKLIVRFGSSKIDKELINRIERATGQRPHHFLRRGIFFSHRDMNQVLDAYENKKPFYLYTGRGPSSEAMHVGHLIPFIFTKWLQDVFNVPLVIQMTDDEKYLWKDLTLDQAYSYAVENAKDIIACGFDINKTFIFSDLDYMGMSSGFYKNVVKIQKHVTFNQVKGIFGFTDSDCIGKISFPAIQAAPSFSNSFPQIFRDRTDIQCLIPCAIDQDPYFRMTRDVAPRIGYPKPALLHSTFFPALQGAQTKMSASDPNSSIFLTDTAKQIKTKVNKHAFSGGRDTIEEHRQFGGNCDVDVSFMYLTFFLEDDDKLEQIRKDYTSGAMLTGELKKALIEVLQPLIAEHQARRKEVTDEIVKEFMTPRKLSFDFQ

[1] = biological target: T2, human VE-cadherin (extracellular portion)-Fc fusion, purified (human, UniProt P33151 48-599); assay: co-IP
T2 sequence (looked up): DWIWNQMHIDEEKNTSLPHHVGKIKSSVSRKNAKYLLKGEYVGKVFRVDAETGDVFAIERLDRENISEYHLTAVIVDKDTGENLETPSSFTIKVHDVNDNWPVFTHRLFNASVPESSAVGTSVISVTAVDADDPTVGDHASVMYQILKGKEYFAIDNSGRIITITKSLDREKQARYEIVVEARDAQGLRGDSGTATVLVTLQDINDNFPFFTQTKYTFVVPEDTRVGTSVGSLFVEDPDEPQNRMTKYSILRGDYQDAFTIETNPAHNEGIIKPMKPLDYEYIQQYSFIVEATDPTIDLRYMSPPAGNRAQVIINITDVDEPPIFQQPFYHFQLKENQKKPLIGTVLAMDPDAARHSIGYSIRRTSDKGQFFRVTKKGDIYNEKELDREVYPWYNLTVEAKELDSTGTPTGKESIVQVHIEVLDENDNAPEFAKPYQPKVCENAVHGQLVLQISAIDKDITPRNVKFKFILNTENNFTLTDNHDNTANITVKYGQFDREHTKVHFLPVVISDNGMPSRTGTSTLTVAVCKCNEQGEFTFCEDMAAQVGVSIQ

Kd (T2-TrpRS): 11 µM
Molecule: N[C@@H](Cc1c[nH]c2ccccc12)C(=O)O [Trp]

amount bound relative to T2-TrpRS [1]: ~5%
B1: full-length human tryptophanyl-tRNA synthetase (FL-TrpRS) (enzyme, UniProt P23381 1-471, looked up)
chain: MPNSEPASLLELFNSIATQGELVRSLKAGNASKDEIDSAVKMLVSLKMSYKAAAGEDYKADCPPGNPAPTSNHGPDATEAEEDFVDPWTVQTSSAKGIDYDKLIVRFGSSKIDKELINRIERATGQRPHHFLRRGIFFSHRDMNQVLDAYENKKPFYLYTGRGPSSEAMHVGHLIPFIFTKWLQDVFNVPLVIQMTDDEKYLWKDLTLDQAYSYAVENAKDIIACGFDINKTFIFSDLDYMGMSSGFYKNVVKIQKHVTFNQVKGIFGFTDSDCIGKISFPAIQAAPSFSNSFPQIFRDRTDIQCLIPCAIDQDPYFRMTRDVAPRIGYPKPALLHSTFFPALQGAQTKMSASDPNSSIFLTDTAKQIKTKVNKHAFSGGRDTIEEHRQFGGNCDVDVSFMYLTFFLEDDDKLEQIRKDYTSGAMLTGELKKALIEVLQPLIAEHQARRKEVTDEIVKEFMTPRKLSFDFQ
